Read-outs that look alike come from different tables or passages of the source.
Assays:
CHO-hB2 cell membranes = biological target: T1, CHO-hB2 cell membranes (Homo sapiens, UniProt P30411); experiment: [35S]GTPγS Binding Assay in CHO-hB2 Cell Membranes; type: biochemical
T1 construct: purchased Receptor Biology, Inc. (Baltimore, MD); host or cells: CHO-hB2 cells (membranes)
T1 sequence (P30411 1-391): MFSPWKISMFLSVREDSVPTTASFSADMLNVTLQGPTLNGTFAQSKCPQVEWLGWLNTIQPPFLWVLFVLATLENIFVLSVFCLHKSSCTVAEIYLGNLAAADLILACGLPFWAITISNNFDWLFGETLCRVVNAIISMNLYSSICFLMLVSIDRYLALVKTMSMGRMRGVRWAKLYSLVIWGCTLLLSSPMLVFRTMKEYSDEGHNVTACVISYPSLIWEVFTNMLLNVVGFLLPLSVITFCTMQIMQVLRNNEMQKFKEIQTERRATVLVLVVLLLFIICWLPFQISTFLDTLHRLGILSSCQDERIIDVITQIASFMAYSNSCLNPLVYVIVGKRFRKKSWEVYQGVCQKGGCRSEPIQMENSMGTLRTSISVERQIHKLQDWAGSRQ
Method: CHO-hB2 cell membranes were purchased from Receptor Biology, Inc. (Baltimore,MD). 10 mg/mL of membrane protein was suspended in 10 mM TRIS-HC pH 7.2, 2 mM EDTA, 10% sucrose.
Membranes were added into 15 mL ice cold binding assay buffer. The assay buffer contained 50 mM HEPES, pH 7.6, 5 mM MgCl2, 100 mM NaCl, 1 mM DTT and 1 mM EDTA. The membrane suspension was homogenized twice with a Polytron and centrifuged at 3000 rpm for 10 min. The supernatant was then centrifuged at 18,000 rpm for 20 min. The pellet was saved in a tube and resuspended.
The pellet membranes (40 µg/mL) were preincubated with SPA (scintillation proximity assay) beads (20 mg/mL) at 25C° for 45 min in the assay buffer. The SPA beads (5 mg/mL) coupled with membranes (10 µg/mL) were then incubated with 0.5 nM [^35S]GTPγS in the same HEPES buffer containing 50 µM GDP in total volume of 200 µL. Bradykinin was used to stimulate [^35S]GTPγS binding. Varying concentrations of drugs were incubated with bradykinin to inhibit bradykinin-stimulated [^35S]GTPγS binding. The basal binding was tested in the absence of bradykinin and no specific binding was tested in the present 10 µM unlabeled GTPγS. The radioactivity was quantified on a Packard Top Count, and calculated. % of Basal = (stimulated binding-non specific binding)/(basal binding-non specific binding) × 100. [formula]

[1] = Graded Abdominal Irritant Test (GrAIT); type: in vivo; conditions: for % Inhibition: 30 minutes before kaolin (100 mg/kg intraperitoneally), responses counted for 15 minutes, dose not given; for ED50: log dose regression analysis
Method: The Graded Abdominal Irritant Test (GrAIT) is a modification of the methods described by Koster et al. (Koster R., Anderson M and DeBeer E. J. Fed. Proc. 1959, 18, 412). Prior to the test (30 minutes for oral or subcutaneous administration), each animal was administered a known analgesic, a test compound, or vehicle (0.05N HCl) by one of two routes (oral or subcutaneous).
Kaolin (100 mg/kg) was injected intraperitoneally (using a standard 23G needle) at a volume of 10mL/kg of body weight. Following the administration of the chemical agent, the animals were placed in glass bell jars (approximately 15cm in diameter with wood chips on the bottom). […] A contraction of the abdominal musculature and an elongation of the body, which extends through to the hindlimbs, characterize this response. The responses were counted during the 15-minute time period after the injection of the kaolin. A mechanical counter or a personal computer was used to collect the number of counts per animal, and animals were observed no more than 5 at a time.
The mean number of counts (±SEM) for a group of animals receiving a known analgesic or test compound was compared to the mean for the group of animals which received only vehicle pretreatment (Control group). For each dose, % inhibition of the response was calculated. For each test compound, the EDso value was calculated using a log dose regression analysis program (PharmTools software).

[2] = biological target: T2, human B2 bradykinin receptors (Homo sapiens, UniProt P30411); experiment: Bradykinin B2 (BK2) Receptor Binding Assay
T2 construct: purchased Receptor Biology, Inc. (Baltimore, MD); host or cells: CHO-K1 cells transfected with the human B2 receptor (membranes)
T2 sequence (P30411 1-391): T1 sequence (P30411 1-391)
Summary of the method: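 Membranes came from CHO-K1 cells expressing human B2 receptors; bound radioligand was collected by filtration and washed with cold 10 mM HEPES, pH 7.5. Single concentrations gave % inhibition of specific binding, and concentration ranges gave Ki values.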

[3] = number in parentheses, bradykinin-stimulated [35S]GTPγS binding, test concentration not given
[4] = word part of the cell, effect on bradykinin-stimulated [35S]GTPγS binding
[5] = membranes of CHO-K1 cells transfected with human B2 bradykinin receptors, ~0.25 nM [3H]NPC17731, 60 min at 25°C

| SMILES | Functional Activity (% Basal) (CHO-hB2 cell membranes; [3]) | Functional Activity (CHO-hB2 cell membranes; [4]) | % Inhibition ([1]; po) | ED50 ([1]; po) [µmol/kg] | Ki [2, 5] [nM] | % Inhibition ([1]; sc) [%] | Functional Activity (CHO-hB2 cell membranes) | Functional Activity (% Basal) (CHO-hB2 cell membranes) | Ki [2] [nM] |
| --- | --- | --- | --- | --- | --- | --- | --- | --- | --- |
| Cc1ccc2cccc(OCc3c(C)ccc(N(C)C(=O)Cc4ccc(C(=O)c5ccc(C#N)cc5)n4C)c3C)c2n1 [Compound 79, 2-[5-(4-Cyano-benzoyl)-1-methyl-1H-pyrrol-2-yl]-N-[2,4-dimethyl-3-(2-methyl-quinolin-8-yloxymethyl)-phenyl]-N-methyl-acetamide] | 100 | Antagonist | 68 po % | 61.3 | 69 | – | – | – | – |
| Cc1ccc2cccc(OCc3c(C)ccc(N(C)C(=O)CCc4ccc(C(=O)c5ccc(C#N)cc5)n4C)c3C)c2n1 [Compound 90] | 50 | Antagonist | 45% | – | 46 | 100 | – | – | – |
| Cc1ccc2cccc(OCc3c(C)ccc(N(C)C(=O)Cc4ccc(C(=O)c5ccc(C#N)nc5)n4C)c3C)c2n1 [Compound 78] | 83 | Antagonist | 82 po % | 114 | 286 | – | – | – | – |
| Cc1ccc2cccc(OCc3c(Cl)ccc(N(C)C(=O)CCc4ccc(C(=O)c5ccc(C#N)cc5)n4C)c3Cl)c2n1 [Compound 91] | – | – | 23% | – | – | 97.4 | Antagonist (58) | Antagonist (58) % Basal | 15 |
| Cc1ccc2cccc(OCc3c(Cl)ccc(N(C)C(=O)CCc4ccc(C(=O)c5ccc(Cl)nc5)n4C)c3Cl)c2n1 [Compound 89] | 51 | Antagonist | 98po % | 22.5 | 57 | – | – | – | – |
| CCN(C(=O)Cc1ccc(C(=O)c2ccc(C#N)cc2)n1C)c1ccc(C)c(COc2cccc3ccc(C)nc23)c1C [Compound 16] | 1 | No effect | 46% | – | 132 | 58 | – | – | – |
| Cc1ccc2cccc(OCc3c(C)ccc(N(C)C(=O)CCc4ccc(C(=O)c5ccc(Cl)nc5)n4C)c3C)c2n1 [Compound 88] | 41 | Antagonist | -24% | – | 126 | 96 | – | – | – |
| Cc1ccc2cccc(OCc3c(C)ccc(N(C)C(=O)Cc4ccc(C(=O)c5ccc(Cl)nc5)n4C)c3C)c2n1 [Compound 77] | 62 | Antagonist | 70 po % | 80.9 | 306 | – | – | – | – |
| CCn1c(CC(=O)N(C)c2ccc(Cl)c(COc3cccc4ccc(C)nc34)c2Cl)ccc1C(=O)c1ccc(C#N)cc1 [Compound 8] | 40 | Antagonist | -11% | – | 13 | 44 | – | – | – |
| Cc1ccc2cccc(OCc3c(Cl)ccc(N(C)C(=O)Cc4ccc(C(=O)c5ccncc5)n4C)c3Cl)c2n1 [Compound 60, N-[2,4-Dichloro-3-(2-methyl-quinolin-8-yloxymethyl)-phenyl]-N-methyl-2-[1-methyl-5-(pyridine-4-carbonyl)-1 H-pyrrol-2-yl]-acetamide] | – | – | 44po % | – | 400 | – | – | – | – |
| CCn1c(CC(=O)N(C)c2ccc(C)c(COc3cccc4ccc(C)nc34)c2C)ccc1C(=O)c1ccc(C#N)cc1 [Compound 7] | – | – | 26% | – | 48 | 42 | – | – | – |
| Cc1ccc2cccc(OCc3c(Cl)ccc(N(C)C(=O)Cc4ccc(C(=O)c5ccc(Cl)nc5)n4C)c3Cl)c2n1 [Compound 67, 2-[5-(6-Chloro-pyridine-3-carbonyl)-1-methyl-1H-pyrrol-2-yl]-N-[2,4-dichloro-3-(2-methyl-quinolin-8-yloxymethyl)-phenyl]-N-methyl-acetamide] | 55 | Antagonist | 78% | 68.8 | 194 | 100 | – | – | – |
| Cc1ccc2cccc(OCc3c(Cl)ccc(N(C)C(=O)Cc4ccc(C(=O)c5ccc(C#N)cc5)n4C)c3Cl)c2n1 [Compound 76] | 79 | Antagonist | 22% | – | 41 | 100 | – | – | – |
| CC(=O)Nc1ccc(C(=O)c2ccc(CC(=O)N(C)c3ccc(Cl)c(COc4cccc5ccc(C)nc45)c3Cl)n2C)cc1 [Compound 74, 2-[5-(4-Acetylamino-benzoyl)-1-methyl-1 H-pyrrol-2-yl]-N-[2,4-dichloro-3-(2-methyl-quinolin-8-yloxymethyl)-phenyl]-N-methyl-acetamide] | 33 | Antagonist | -6% | – | 68 | 88 | – | – | – |
| Cc1ccc2cccc(OCc3c(Cl)ccc(N(C)C(=O)Cc4ccc(C(=O)c5ccc(S(C)(=O)=O)cc5)n4C)c3Cl)c2n1 [Compound 75, N-[2,4-Dichloro-3-(2-methyl-quinolin-8-yloxymethyl)-phenyl]-2-[5-(4-methanesulfonyl-benzoyl)-1-methyl-1 H-pyrrol-2-yl]-N-methyl-acetamide] | 73 | Antagonist | 50% | – | 47 | 93.3 | – | – | – |
| CCN(C(=O)Cc1ccc(C(=O)c2ccc(Cl)nc2)n1C)c1ccc(Cl)c(COc2cccc3ccc(C)nc23)c1Cl [Compound 17] | 1 | No effect | -1% | – | 342 | 47 | – | – | – |
| Cc1ccc2cccc(OCc3c(Cl)ccc(N(C)C(=O)Cc4ccc(C(=O)c5ccc(C#N)cc5)n4CC4CC4)c3Cl)c2n1 [Compound 11, 2-[5-(4-Cyano-benzoyl)-1-cyclopropylmethyl-1H-pyrrol-2-yl]-N-[2,4-dichloro-3-(2-methyl-quinolin-8-yloxymethyl)-phenyl]-N-methyl-acetamide] | 1 | No effect | – | – | 48 | – | – | – | – |
| Cc1ccc2cccc(OCc3c(Cl)ccc(N(C)C(=O)CCc4ccc(C(=O)c5ccncc5)n4C)c3Cl)c2n1 [Compound 83] | 45 | Antagonist | – | – | 168 | – | – | – | – |
| Cc1ccc2cccc(OCc3c(Cl)ccc(N(C)C(=O)Cc4ccc(C(=O)c5ccc(C(=O)N(C)C)cc5)n4C)c3Cl)c2n1 [Compound 62, 4-[5-({[2,4-Dichloro-3-(2-methyl-quinolin-8-yloxymethyl)-phenyl]-methylcarbamoyl}-methyl)-1-methyl-1H-pyrrole-2-carbonyl]-N,N-dimethyl-benzamide] | 59 | Antagonist | – | – | 204 | – | – | – | – |

Reference: patent EP1914236A1 (Ortho-McNeil Pharmaceutical, Inc., priority 2002, dated 2003)
